Reference: the NIST ThermoML archive (doi:10.1016/j.jct.2003.09.011)
Numbers after ± are expanded uncertainties.

Assay: activity coefficient (dimensionless); of the first substance listed, at infinite dilution; xn = mol fraction of the nth substance listed
Settings: Liquid, Chromatography, x1 = 0

Structure (SMILES) | activity coefficient (278.15 K) | activity coefficient (298.15 K)
C=CCCCC [hex-1-ene] + O=Cc1ccco1 | 15.2 ± 1.3 | 15 ± 1.3
c1ccccc1 [benzene] + O=Cc1ccco1 | 2.55 ± 0.22 | 2.45 ± 0.21
CCCCC [pentane] + O=Cc1ccco1 | 24.3 ± 2.1 | 21.6 ± 1.9
CCCCCCC [heptane] + O=Cc1ccco1 | 38.1 ± 3.3 | 33.4 ± 2.9
C1CCCCC1 [cyclohexane] + O=Cc1ccco1 | 16.8 ± 1.5 | 13.6 ± 1.2
C#CCCCCC [1-heptyne] + O=Cc1ccco1 | 20 ± 1.7 | 17.9 ± 1.5
C1CCCC1 [cyclopentane] + O=Cc1ccco1 | 14.2 ± 1.2 | 13.3 ± 1.2
C1CCCCCC1 [cycloheptane] + O=Cc1ccco1 | 18.6 ± 1.6 | 15.5 ± 1.3
CCCCCC [hexane] + O=Cc1ccco1 | 31.9 ± 2.8 | 27.8 ± 2.4
C#CCCCC [1-hexyne] + O=Cc1ccco1 | 6.27 ± 0.54 | 5.09 ± 0.44
